Reference: US11484539B2, “Compounds and their uses for alleviating menopause-associated symptoms” (Estetra SPRL, priority 2018, dated 2022)
Where two headings read alike, the source gives them in different places. Marks after values point to notes of the source that are not given here.

Experiments:
post-menopausal women [1] = test: Adverse Events (AEs, TEAEs); assay type: in vivo
Text: This is confirmed by the following statistical analysis. Using a Poisson regression model with a random effect for the patient and treatment group as a covariate to model the count of TEAEs in the different treatment groups, it can be shown that there is no statistical difference between the treatment groups (p value of 0.099). Second, a chi-square test was used to assess if the prevalence of patients reporting TEAEs in each treatment group was similar. No statistical difference was found between the treatment groups (p value of 0.575).

post-menopausal women [2] = test: Patients leaving the study; assay type: in vivo
Text: 3. Patients leaving the study

postmenopausal women = settings: cited from earlier work
post-menopausal women [3] = test: Genito-urinary symptoms (GSM), VVA subject self-assessment; assay type: in vivo
Method: Change from baseline to week 12 in the following GSM symptoms (VVA subject self-assessment) were recorded: • a) Vaginal dryness (sensation of dryness or burning in the vagina; none=0 mild=1, moderate=2 or severe=3):
• b) Vaginal and/or vulvar irritation/itching (sensation of abnormal irritation or sensitive condition in the vagina; none=0, mild=1, moderate=2 or severe=3):
• c) Dysuria (sensation of pain or difficulty in urinating; none=0, mild=1, moderate=2 or severe=3):
• d) Vaginal pain associated with sexual activity (sensation of pain with sexual intercourse none=0, mild=1, moderate=2 or severe=3):
• e) Vaginal bleeding associated with sexual activity (loss of blood with sexual intercourse; presence=1 vs. absence=0): […]

## C[C@]12CC[C@@H]3c4ccc(O)cc4CC[C@H]3[C@@H]1[C@@H](O)[C@@H](O)[C@@H]2O [E4, 1,3,5 (10)-estratrien-3,15alpha,16alpha,17beta-tetrol]
post-menopausal women [1]; 2.5 mg
  Count of Treatment Emergent AEs (TEAEs): 61
  Percentage of patients with TEAE leading to Study Discontinuation: 1.9%
  Percentage of patients with severe TEAE: 7.7%
post-menopausal women [1]; 5 mg
  Count of Treatment Emergent AEs (TEAEs): 63
  Percentage of patients with TEAE leading to Study Discontinuation: 6.4%
  Percentage of patients with severe TEAE: 10.6%
post-menopausal women [1]; 10 mg
  Count of Treatment Emergent AEs (TEAEs): 95
  Percentage of patients with TEAE leading to Study Discontinuation: 5.6%
  Percentage of patients with severe TEAE: 7.4%
post-menopausal women [1]; 10 mg group
  Average AEs per patient, in patients who had AEs: 3.2
post-menopausal women [1]; 15 mg
  Count of Treatment Emergent AEs (TEAEs): 82
  Percentage of patients with TEAE leading to Study Discontinuation: 4.1%
  Percentage of patients with severe TEAE: 6.1%
post-menopausal women [1]; 15 mg group
  Average AEs per patient, in patients who had AEs: 2.6
  TEAEs compared with the 10 mg group: less TEAEs than patients in the 10 mg group
post-menopausal women [2]; 2.5 mg
  Number of patients leaving the study: 9
post-menopausal women [2]; 5 mg
  Number of patients leaving the study: 11
post-menopausal women [2]; 10 mg
  Number of patients leaving the study: 15
post-menopausal women [2]; 15 mg
  Number of patients leaving the study: 8
Postmenopausal women; 2 mg estetrol group
  Endometrial thickness: stable
Postmenopausal women; 2 mg estetrol per day
  Mean number of hot flushes and sweating: decrease
Postmenopausal women; 10 mg estetrol group
  Endometrial thickness: increasing
post-menopausal women [3]; 2.5 mg, Baseline
  Dysuria score (none=0, mild=1, moderate=2, severe=3), mean ± SD: 0.2 ± 0.56
  Vaginal and/or vulvar irritation/itching score (none=0, mild=1, moderate=2, severe=3), mean ± SD: 0.7 ± 0.96
  Vaginal bleeding associated with sexual activity, Absence (%): 100%
  Vaginal bleeding associated with sexual activity, Presence (%): 0%
  Vaginal dryness score (none=0, mild=1, moderate=2, severe=3), mean ± SD: 1 ± 0.90
  Vaginal pain associated with sexual activity score (none=0, mild=1, moderate=2, severe=3), mean ± SD: 0.6 ± 0.77
post-menopausal women [3]; 2.5 mg, Week 12
  Dysuria score (none=0, mild=1, moderate=2, severe=3), mean ± SD: 0 ± 0.19
  Vaginal and/or vulvar irritation/itching score (none=0, mild=1, moderate=2, severe=3), mean ± SD: 0.3 ± 0.60
  Vaginal bleeding associated with sexual activity, Absence (%): 100%
  Vaginal bleeding associated with sexual activity, Presence (%): 0%
  Vaginal dryness score (none=0, mild=1, moderate=2, severe=3), mean ± SD: 0.5 ± 0.77
  Vaginal pain associated with sexual activity score (none=0, mild=1, moderate=2, severe=3), mean ± SD: 0.3 ± 0.73
post-menopausal women [3]; 5 mg, Baseline
  Dysuria score (none=0, mild=1, moderate=2, severe=3), mean ± SD: 0.2 ± 0.56
  Vaginal and/or vulvar irritation/itching score (none=0, mild=1, moderate=2, severe=3), mean ± SD: 0.6 ± 0.90
  Vaginal bleeding associated with sexual activity, Presence (%): 6.4%
  Vaginal dryness score (none=0, mild=1, moderate=2, severe=3), mean ± SD: 1.3 ± 0.94
  Vaginal pain associated with sexual activity score (none=0, mild=1, moderate=2, severe=3), mean ± SD: 1 ± 1.07
post-menopausal women [3]; 5 mg, Baseline, some patients had no sexual activity
  Vaginal bleeding associated with sexual activity, Absence (%): 91.5^# %
post-menopausal women [3]; 5 mg, Week 12
  Dysuria score (none=0, mild=1, moderate=2, severe=3), mean ± SD: 0 ± 0.20
  Vaginal and/or vulvar irritation/itching score (none=0, mild=1, moderate=2, severe=3), mean ± SD: 0.4 ± 0.65
  Vaginal bleeding associated with sexual activity, Absence (%): 100%
  Vaginal bleeding associated with sexual activity, Presence (%): 0%
  Vaginal dryness score (none=0, mild=1, moderate=2, severe=3), mean ± SD: 0.7 ± 0.86
  Vaginal pain associated with sexual activity score (none=0, mild=1, moderate=2, severe=3), mean ± SD: 0.5 ± 0.78
post-menopausal women [3]; 10 mg, Baseline
  Dysuria score (none=0, mild=1, moderate=2, severe=3), mean ± SD: 0.2 ± 0.58
  Vaginal and/or vulvar irritation/itching score (none=0, mild=1, moderate=2, severe=3), mean ± SD: 0.7 ± 0.87
  Vaginal bleeding associated with sexual activity, Absence (%): 100%
  Vaginal bleeding associated with sexual activity, Presence (%): 0%
  Vaginal dryness score (none=0, mild=1, moderate=2, severe=3), mean ± SD: 1 ± 0.93
  Vaginal pain associated with sexual activity score (none=0, mild=1, moderate=2, severe=3), mean ± SD: 0.6 ± 0.77
post-menopausal women [3]; 10 mg, Week 12
  Dysuria score (none=0, mild=1, moderate=2, severe=3), mean ± SD: 0.1 ± 0.23
  Vaginal and/or vulvar irritation/itching score (none=0, mild=1, moderate=2, severe=3), mean ± SD: 0.3 ± 0.64
  Vaginal bleeding associated with sexual activity, Absence (%): 100%
  Vaginal bleeding associated with sexual activity, Presence (%): 0%
  Vaginal dryness score (none=0, mild=1, moderate=2, severe=3), mean ± SD: 0.5 ± 0.75
  Vaginal pain associated with sexual activity score (none=0, mild=1, moderate=2, severe=3), mean ± SD: 0.2 ± 0.36
post-menopausal women [3]; 15 mg, Baseline
  Dysuria score (none=0, mild=1, moderate=2, severe=3), mean ± SD: 0.3 ± 0.58
  Vaginal and/or vulvar irritation/itching score (none=0, mild=1, moderate=2, severe=3), mean ± SD: 0.5 ± 0.85
  Vaginal bleeding associated with sexual activity, Presence (%): 0%
  Vaginal dryness score (none=0, mild=1, moderate=2, severe=3), mean ± SD: 1.1 ± 1.04
  Vaginal pain associated with sexual activity score (none=0, mild=1, moderate=2, severe=3), mean ± SD: 0.7 ± 0.90
post-menopausal women [3]; 15 mg, Baseline, some patients had no sexual activity
  Vaginal bleeding associated with sexual activity, Absence (%): 97.9^# %
post-menopausal women [3]; 15 mg, Week 12
  Dysuria score (none=0, mild=1, moderate=2, severe=3), mean ± SD: 0.3 ± 0.61
  Vaginal and/or vulvar irritation/itching score (none=0, mild=1, moderate=2, severe=3), mean ± SD: 0.4 ± 0.70
  Vaginal bleeding associated with sexual activity, Absence (%): 95.8%
  Vaginal bleeding associated with sexual activity, Presence (%): 4.2%
  Vaginal dryness score (none=0, mild=1, moderate=2, severe=3), mean ± SD: 0.5 ± 0.68
  Vaginal pain associated with sexual activity score (none=0, mild=1, moderate=2, severe=3), mean ± SD: 0.3 ± 0.54
